Like-named read-outs stand apart in the source and are kept apart here.
Target: T1, F508delCFTR (Homo sapiens, UniProt P13569, DEL508-508)
T1 construct: expressed in transfected cells; host or cells: CFBE41o- human lung-derived epithelial cells (CFBE4lo-F508delCFTR-HRP), doxycycline-inducible
Assay: Cell Surface Expression-Horse Radish Peroxidase (CSE-HRP) Assay;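 for Maximum % activity (with co-corrector): co-corrector and positive control are both the same reference corrector at 2 µM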;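 for Maximum % activity (without co-corrector): percent of the 2 µM on-plate positive control corrector response above DMSO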
Format: cell-based
Conditions: for Emax / Maximum % activity (with co-corrector): maximum at any tested concentration, normalized to on-plate positive control; for Emax: read-out: Maximum % activity (without co-corrector)

[1] = test compound without co-corrector
[2] = test compound without co-corrector, read-out: EC50 (without co-corrector)
[3] = with co-corrector (2 μM of 3-[(2R,4R)-4-({[1-(2,2-difluoro-1,3-benzodioxol-5-yl)cyclopropyl]carbonyl}amino)-7-methoxy-3,4-dihydro-2H-chromen-2-yl]benzoic acid)
[4] = with co-corrector (2 μM of 3-[(2R,4R)-4-({[1-(2,2-difluoro-1,3-benzodioxol-5-yl)cyclopropyl]carbonyl}amino)-7-methoxy-3,4-dihydro-2H-chromen-2-yl]benzoic acid), read-out: EC50 (with co-corrector)
[5] = CSE-HRP, test compound without co-corrector, read-out: EC50 (without co-corrector)
[6] = CSE-HRP, with co-corrector (2 μM of 3-[(2R,4R)-4-({[1-(2,2-difluoro-1,3-benzodioxol-5-yl)cyclopropyl]carbonyl}amino)-7-methoxy-3,4-dihydro-2H-chromen-2-yl]benzoic acid), read-out: EC50 (with co-corrector)
[7] = CSE-HRP, with co-corrector (2 μM)

T1 sequence (P13569 with tags, fused parts or gaps DEL508-508): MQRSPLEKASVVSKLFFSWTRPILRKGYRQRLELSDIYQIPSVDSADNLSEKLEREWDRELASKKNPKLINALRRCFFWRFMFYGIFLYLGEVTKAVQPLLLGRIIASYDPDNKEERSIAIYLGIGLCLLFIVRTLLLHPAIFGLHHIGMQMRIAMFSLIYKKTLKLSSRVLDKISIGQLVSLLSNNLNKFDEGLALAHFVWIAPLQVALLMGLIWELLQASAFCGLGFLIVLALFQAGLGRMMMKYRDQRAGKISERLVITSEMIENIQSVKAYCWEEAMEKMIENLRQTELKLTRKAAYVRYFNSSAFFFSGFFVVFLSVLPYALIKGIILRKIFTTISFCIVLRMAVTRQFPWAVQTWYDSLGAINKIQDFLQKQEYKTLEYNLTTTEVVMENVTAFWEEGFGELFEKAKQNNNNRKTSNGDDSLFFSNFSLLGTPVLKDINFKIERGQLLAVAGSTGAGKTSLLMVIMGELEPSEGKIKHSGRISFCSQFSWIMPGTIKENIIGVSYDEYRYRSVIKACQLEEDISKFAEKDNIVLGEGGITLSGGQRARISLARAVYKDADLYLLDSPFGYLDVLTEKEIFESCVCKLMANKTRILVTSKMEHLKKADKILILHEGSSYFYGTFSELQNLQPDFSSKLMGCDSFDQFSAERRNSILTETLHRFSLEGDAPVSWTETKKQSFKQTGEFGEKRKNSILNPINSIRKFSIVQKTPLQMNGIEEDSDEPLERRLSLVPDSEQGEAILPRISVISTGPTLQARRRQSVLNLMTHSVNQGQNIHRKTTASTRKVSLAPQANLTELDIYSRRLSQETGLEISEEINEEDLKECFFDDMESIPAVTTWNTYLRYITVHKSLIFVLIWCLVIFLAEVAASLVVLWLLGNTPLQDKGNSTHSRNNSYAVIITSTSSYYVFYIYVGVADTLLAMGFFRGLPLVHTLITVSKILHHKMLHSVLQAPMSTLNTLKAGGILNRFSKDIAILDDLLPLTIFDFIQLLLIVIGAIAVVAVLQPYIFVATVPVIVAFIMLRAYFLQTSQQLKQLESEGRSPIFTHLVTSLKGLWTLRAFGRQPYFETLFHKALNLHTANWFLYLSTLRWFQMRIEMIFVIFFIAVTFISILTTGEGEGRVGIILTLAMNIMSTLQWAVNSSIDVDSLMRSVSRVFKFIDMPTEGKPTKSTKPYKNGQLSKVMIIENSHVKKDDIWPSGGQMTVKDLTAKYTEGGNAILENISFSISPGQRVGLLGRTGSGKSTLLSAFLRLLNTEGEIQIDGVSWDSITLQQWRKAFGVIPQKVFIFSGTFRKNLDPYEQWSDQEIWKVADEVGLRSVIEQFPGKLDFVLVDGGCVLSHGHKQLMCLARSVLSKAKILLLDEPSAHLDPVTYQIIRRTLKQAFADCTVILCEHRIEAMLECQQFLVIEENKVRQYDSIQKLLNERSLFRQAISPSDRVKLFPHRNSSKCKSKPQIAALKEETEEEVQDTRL

Emax [1] [%] | EC50 [2] [µM] | Maximum % activity (with co-corrector) [3] | EC50 [4] [µM] | Maximum % activity (with co-corrector) (with co-corrector (2 μM)) | Emax (without co-corrector) [%] | EC50 [5] [µM] | EC50 [6] [µM] | Maximum % activity (with co-corrector) [7] | Emax (CSE-HRP, without co-corrector) [%] | SMILES
100 to 200 | 1 to 10 | +++ (≥350) | < 1 |  |  |  |  |  |  | COc1ncc(C(F)(F)F)cc1CN[C@H]1[C@H](C(C)(C)C)[C@@H](C(=O)O)N(C(=O)[C@@H]2CCCC(F)(F)C2)[C@H]1c1cccnc1OC [II-572]
 | 1 to 10 |  | 1 to 10 | +++ (≥350) | > 200 |  |  |  |  | COc1ccc(C(F)(F)F)cc1CN[C@@H]1[C@@H](C(C)(C)OC)[C@H](C(=O)O)N(C(=O)C2CCCCC2)[C@@H]1c1ccccc1 (racemic) [Example 6, rac-(2R,3R,4R,5R)-1-(cyclohexanecarbonyl)-3-(2-methoxypropan-2-yl)-4-({[2-methoxy-5-(trifluoromethyl)phenyl]methyl}amino)-5-phenylpyrrolidine-2-carboxylic acid]
 |  |  |  |  |  | < 1 | < 1 | +++ (≥350) | 100 to 200 | COc1ncc(CC2CCCCC2)cc1CN[C@H]1[C@H](C(C)(C)OC)[C@@H](C(=O)O)N(C(=O)C2CCCCC2)[C@H]1c1ccccc1 [II-253]
 |  |  |  |  |  | 1 to 10 | 1 to 10 | +++ (≥350) | > 200 | COc1ccc(C(F)(F)F)cc1CN[C@@H]1[C@@H](C(C)(C)C)[C@H](C(=O)O)N(C(=O)C2CCCCO2)[C@@H]1c1ccccc1N(C)C (mixture of isomers) [II-20]
< 100 | > 10 | + (<150) | > 10 |  |  |  |  |  |  | CC(C)(C)[C@@H]1[C@@H](NCc2cc(S(C)(=O)=O)ccc2O)[C@@H](c2ccccc2)N(C(=O)C2CCCCC2)[C@H]1C(=O)O (racemic) [III-79]
 |  |  |  |  |  | 1 to 10 | < 1 | +++ (≥350) | > 200 | COc1ccc(C(C)C)cc1CN[C@H]1[C@H](C(C)(C)C)[C@@H](C(=O)O)N(C(=O)C2CCCCC2)[C@H]1c1ccccc1 [II-168]
 |  |  |  |  |  | < 1 | < 1 | +++ (≥350) | 100 to 200 | COc1ccc(C(C)(C)C)cc1CN[C@H]1[C@H](C(C)(C)C)[C@@H](C(=O)O)N(C(=O)C(C)Oc2cccc(F)c2)[C@H]1c1ccccc1 (some centres unmarked) [II-305]
 | < 1 |  | < 1 | +++ (≥350) | < 100 |  |  |  |  | CC(C)c1ccccc1CN[C@@H]1[C@@H](C(C)(C)C)[C@H](C(=O)O)N(C(=O)C2CCCCC2)[C@@H]1c1ccccc1 (racemic) [Example I-35]
 | 1 to 10 |  | < 1 | +++ (≥350) | 100 to 200 |  |  |  |  | COc1ccc(C(C)(C)C)cc1CN[C@H]1[C@H](C(C)(C)C)[C@@H](C(=O)O)N(C(=O)C2CCc3ccccc3O2)[C@H]1c1cccnc1N(C)C (single isomer, unassigned) [Example 43, (2S,3S,4S,5S)-3-tert-butyl-4-{[(5-tert-butyl-2-methoxyphenyl)methyl]amino}-1-[(2S*)-3,4-dihydro-2H-1-benzopyran-2-carbonyl]-5-[2-(dimethylamino)pyridin-3-yl]pyrrolidine-2-carboxylic acid]
< 100 | 1 to 10 |  | 1 to 10 | ++ (≥150 and <350) |  |  |  |  |  | COc1ccc2cc(C)nc(N[C@H]3[C@H](C(C)(C)C)[C@@H](C(=O)O)N(C(=O)C4CCCCC4)[C@H]3c3ccccc3)c2c1 [III-154]
< 100 | 1 to 10 | +++ (≥350) | 1 to 10 |  |  |  |  |  |  | COc1ccc(C(F)(F)F)cc1CN[C@H]1[C@H](C(C)(C)C)[C@@H](C(=O)O)N(C(=O)C2(C)CCCOC2)[C@H]1c1ccccc1N(C)C (mixture of isomers) [III-77]

— patent publication US20180099931A1 (AbbVie S.à.r.l., priority 2016, published 2018)
